Experimental data: patent US20250295679A1, “Compositions and Dosage Forms for Treatment of HPV Infection and HPV-Induced Neoplasia” (priority 2022, published 2025)
Like-named read-outs stand apart in the source and are kept apart here.

What was measured:
[1] = Bulk (accelerated) stability, one week, HPLC and XRPD; conditions: for HPLC purity, Initial: initial chemical purity before storage; for Bulk (HPLC) Purity / Bulk Color: 1 week
Description: Bulk stability: Accelerated stability experiments were conducted at 25° C./92% RH and 40° C./75% RH in an open container, 60° C. in a tight container for one week.
Samples were characterized by XRPD and HPLC and inspected for color change.
Accelerated stability experiments were conducted at 25° C./92% RH in an open container, at 40° C./75% RH in an open container, and at 60° C. in a tight container for one week.

[2] = Solubility in buffers, water and simulated vaginal fluid at 37° C.
Description: About 4 mg of Compound I Pattern 1 was added into 2 mL of buffer solution.
(§1) Solubility was tested in five media, pH 3.0 citrate buffer, pH 4.5 acetate buffer, pH 6.8 phosphate buffer, water, simulated vaginal fluid (pH 4.2) at 37° C. for 0.5 h and 2 h.
The salt amount used is equivalent to 10 mg anhydrous free base. […] The obtained clear solutions were analyzed by pH meter for pH, and solubility was determined by observation.
as §1

[3] = Hygroscopicity by DVS at 25° C.; assay type: physicochemical; conditions: for Desorption (%) Cycle 1 / Desorption (%) Cycle 2 / Sorption (%) Cycle 1 / Sorption (%) Cycle 2 / Water uptake / Desorp. (%) Cycle 1 / Desorp. (%) Cycle 2 / Sorp. (%) Cycle 1 / Sorp. (%) Cycle 2: DVS 25° C.; for XRPD after DVS test: 25° C.; for Water uptake: up to / in 95% RH
Description: Hygroscopicity was investigated by DVS at 25° C., using the following method: • Method: 40-0-95-0-40% RH, dm/dt=0.002

[4] = Ex vivo permeation and penetration across porcine vaginal tissue (Franz diffusion cell, IVPT); assay type: in vitro ADME; parameters: Concentration in vaginal tissue: unit not given here; conditions: for Tissue penetration: porcine vaginal tissue, 0.1% Compound II gel, 1% and 3% ABI-1968 formulations
Source text: FIG. 116 is an in vitro tissue permeation test in vaginal tissue comparing Compound II to ABI-1968. […] Bars B and C show the tissue penetration of a 0.1% Compound II gel in human cervical tissue. […] This may be a contributing factor to the performance of ABI-1968 in clinical studies. […] This is described in Example 41.
Freshly harvested porcine vaginal tissue was procured from local slaughterhouse in an ice box. The vaginal tissue was cut open to expose the mucosal surface and tissue was cleaned by gentle flow of PBS pH 7.4. The porcine vaginal tissue was cut into circular portions (approximately 2 cm^2) with help of a […] punch.
The circular portion of tissue was sandwiched between two chambers of a Franz diffusion cell with an active diffusion area of 1 cm^2, and the mucosal layer was exposed to the donor chambers. The resistance across porcine vaginal tissue was measured using a wave form generator to ensure the integrity of the tissue segment used for the permeation study. Porcine vaginal tissue with resistance of ≥3 KΩ·cm^2 was used for study. The receiver chamber was filled with 8 ml of 5% solutol PBS 7.4 pH, which was stirred at 600 rpm with a 3 mm magnetic stir bar and the temperature was maintained at 37° C. with a circulating water bath.
The ˜200 mg of gel was filled into tared 1 mL syringe and gel was dispensed to donor chamber. The gel was spread on to mucosal surface with pre weighed applicator. After loading and spreading of the gel onto surface of mucosal surface, the weight of 1 mL syringe and applicator was noted to determine the exact amount of gel loaded into donor chamber.
Time course (2 h, 4 h and 8 h) porcine vaginal permeation studies were performed. After loading gel, 500 μL samples were withdrawn from the receiver compartment at different time intervals and each time an equal volume of fresh receiver media was used to replace withdrawn samples. The sample withdrawn at each time interval were stored immediately in −20° C. until analysis. After 2, 4 and 8 h, the formulation was removed from the donor chamber with help of syringe and cleaned with cotton swab. The tissue was removed and washed gently with wash solution (50% methanol in water) 5 times and alternatively cleaning with cotton swab.
An 8 mm punch of active diffusion area of washed porcine vaginal tissue was removed, weighed and transferred into a tube. This tube was immediately placed into dry ice for ˜15 min. After specified time, tissue was removed and placed in precooled dish. The tissue was minced into smaller pieces on a dish with a precooled surgical blade. The minced tissue was transferred to sample tubes and dish was rinsed with 1 ml of 5% solutol in PBS 7.4 pH and transferred to same tissue sample tube. These tubes were stored in −70° C. until analysis. […]

[5] = Polymorph screening by equilibration in solvents; assay type: physicochemical
[6] = 25° C., 92% RH, open container, one week
[7] = BS1: solid state, 25° C./92% RH, open container
[8] = BS2: solid state, 40° C./75% RH, open container
[9] = BS3: solid state, 60° C., tight container

CCOC(=O)C(C)NP(=O)(COCCn1cnc2c(OC)nc(N)nc21)OCc1ccccc1.CCOC(=O)C(C)NP(=O)(COCCn1cnc2c(OC)nc(N)nc21)OCc1ccccc1.O=C(O)C=CC(=O)O (mixture of isomers) [Compound I hemifumarate]
HPLC purity after storage [1, 6]: 97.0%
XRPD after storage [1, 6]: No change
HPLC purity after storage ([1]; 40° C., 75% RH, open container, one week): 90.9%
HPLC purity after storage ([1]; 60° C., tight container, one week): 82.3%
HPLC purity, Initial ([1]; listed as Compound I Hemifumarate Pattern 1): 97.8%
HPLC purity, Initial ([1]; listed as Compound I hemifumarate Pattern 1): 97.8%
Solubility 0.5 hrs [2]: >2000 µg/mL
Solubility 2 hrs [2]: >2000 µg/mL
Solubility 0.5 hrs ([2]; pH 3): >2000 µg/mL
Solubility 2 hrs ([2]; pH 3): >2000 µg/mL
Solubility 0.5 hrs ([2]; pH 4.2): >2000 µg/mL
Solubility 2 hrs ([2]; pH 4.2): >2000 µg/mL
Solubility 0.5 hrs ([2]; pH 4.5): >2000 µg/mL
Solubility 2 hrs ([2]; pH 4.5): >2000 µg/mL
Solubility 0.5 hrs ([2]; pH 6.8): >2000 µg/mL
Solubility 2 hrs ([2]; pH 6.8): >2000 µg/mL
pH at 2 hrs ([2]; solution in simulated vaginal fluid (pH adjusted with 0.2N NaOH), 37° C.): (5.30)
Desorption (%) Cycle 1 ([3]; 0% RH): 0.13%
Desorption (%) Cycle 2 ([3]; 0% RH): 0.00%
Sorption (%) Cycle 1 ([3]; 0% RH): 0.13%
Sorption (%) Cycle 2 ([3]; 0% RH): 0.00%
Desorption (%) Cycle 1 ([3]; 10% RH): 0.36%
Desorption (%) Cycle 2 ([3]; 10% RH): 0.23%
Sorption (%) Cycle 1 ([3]; 10% RH): 0.34%
Sorption (%) Cycle 2 ([3]; 10% RH): 0.20%
Desorption (%) Cycle 1 ([3]; 20% RH): 0.56%
Desorption (%) Cycle 2 ([3]; 20% RH): 0.44%
Sorption (%) Cycle 1 ([3]; 20% RH): 0.53%
Sorption (%) Cycle 2 ([3]; 20% RH): 0.40%
Desorption (%) Cycle 1 ([3]; 30% RH): 0.79%
Desorption (%) Cycle 2 ([3]; 30% RH): 0.68%
Sorption (%) Cycle 1 ([3]; 30% RH): 0.73%
Sorption (%) Cycle 2 ([3]; 30% RH): 0.61%
Desorption (%) Cycle 1 ([3]; 40% RH): 1.04%
Desorption (%) Cycle 2 ([3]; 40% RH): 0.94%
Sorption (%) Cycle 1 ([3]; 40% RH): 0.96%
Sorption (%) Cycle 2 ([3]; 40% RH): 0.87%
Desorption (%) Cycle 2 ([3]; 50% RH): 1.26%
Sorption (%) Cycle 1 ([3]; 50% RH): 1.22%
Desorption (%) Cycle 2 ([3]; 60% RH): 1.68%
Sorption (%) Cycle 1 ([3]; 60% RH): 1.57%
Desorption (%) Cycle 2 ([3]; 70% RH): 2.25%
Sorption (%) Cycle 1 ([3]; 70% RH): 2.04%
Desorption (%) Cycle 2 ([3]; 80% RH): 3.14%
Sorption (%) Cycle 1 ([3]; 80% RH): 2.80%
Desorption (%) Cycle 2 ([3]; 90% RH): 4.84%
Sorption (%) Cycle 1 ([3]; 90% RH): 4.54%
Desorption (%) Cycle 2 ([3]; 95% RH): 6.87%
Sorption (%) Cycle 1 ([3]; 95% RH): 6.87%
XRPD after DVS test ([3]; after humidity cycle 40-0-95-0-40% RH): No form change,
Water uptake [3]: ~6.9%

CCCCCCCCCCCCCCCCCCOCCOP(=O)(COCCn1cnc2c(=O)[nH]c(N)nc21)OCc1ccccc1 (centres unmarked) [ABI-1968]
Concentration in vaginal tissue ([4]; 3% dose, FIG. 116): < 15
Tissue penetration ([4]; FIG. 116): substantially smaller degree
Tissue concentration ([4]; up to a 3% dose, Bar F and G in FIG. 116): < 15 ng/mg

CCOC(=O)[C@H](C)N[P@@](=O)(COCCn1cnc2c(OC)nc(N)nc21)OCc1ccccc1.O=C(O)/C=C/C(=O)O [Compound II]
Crystal modification after 1 week equilibration at 25° C. ([5]; PS1: IPA): Compound II Pattern 1
Crystal modification after 1 week equilibration at 25° C. ([5]; PS2: Heptanes): Compound II Pattern 1
Crystal modification after 1 week equilibration at 25° C. ([5]; PS3: Water): Compound II Pattern 1
Crystal modification after 1 week equilibration at 25° C. ([5]; PS4: ACN): Compound II Pattern 2
Crystal modification after 1 week equilibration at 25° C. ([5]; PS5: MEK): Compound II Pattern 3
Crystal modification after 1 week equilibration at 25° C. ([5]; PS6: Acetone): Compound II Pattern 1
Crystal modification after 1 week equilibration at 25° C. ([5]; PS7: IPA/heptanes (3/10, v/v)): Compound II Pattern 1
Crystal modification after 1 week equilibration at 25° C. ([5]; PS8: water/ACN (2.9/97.1, v/v)): Compound II Pattern 2
Crystal modification after 1 week equilibration at 25° C. ([5]; PS9: IPA/MTBE (1/3, v/v)): Compound II Pattern 1
Crystal modification after 1 week equilibration at 25° C. ([5]; PS10: EA/toluene (1/3, v/v)): Compound II Pattern 1
Dissociation of the salt during equilibration experiments ([5]; equilibration in solvents, 1 week, 25° C.): no dissociation was observed
Stability after exposure to the three conditions ([1]; 25° C./92% RH open, 40° C./75% RH open, 60° C. tight container, one week): good physical and chemical stability
Bulk (HPLC) Purity [1, 7]: 99.5%
Bulk Color [1, 7]: No change
Bulk (HPLC) Purity [1, 8]: 99.4%
Bulk Color [1, 8]: No change
Bulk (HPLC) Purity [1, 9]: 99.7%
Bulk Color [1, 9]: No change
HPLC purity, Initial [1]: 99.7%
Tissue penetration ([4]; FIG. 116): high tissue penetration
pH of solution at 2 hours ([2]; ES1: pH 3.0, 100 mM citrate buffer, 37° C.): 2.85
pH of solution at 2 hours ([2]; ES2: pH 4.5, 50 mM acetate buffer, 37° C.): 4.2
pH of solution at 2 hours ([2]; ES3: pH 6.8, 50 mM phosphate buffer, 37° C.): 6.47
pH of solution at 2 hours ([2]; ES4: Water, 37° C.): 2.87
pH of solution at 2 hours ([2]; ES5: Simulated vaginal fluid (pH adjusted by 0.1N NaOH), 37° C.): 5.79
Desorp. (%) Cycle 1 ([3]; 0% RH): 0.03%
Desorp. (%) Cycle 2 ([3]; 0% RH): 0.03%
Sorp. (%) Cycle 1 ([3]; 0% RH): 0.03%
Sorp. (%) Cycle 2 ([3]; 0% RH): 0.03%
Desorp. (%) Cycle 1 ([3]; 10% RH): 0.05%
Desorp. (%) Cycle 2 ([3]; 10% RH): 0.05%
Sorp. (%) Cycle 1 ([3]; 10% RH): 0.04%
Sorp. (%) Cycle 2 ([3]; 10% RH): 0.04%
Desorp. (%) Cycle 1 ([3]; 20% RH): 0.08%
Desorp. (%) Cycle 2 ([3]; 20% RH): 0.07%
Sorp. (%) Cycle 1 ([3]; 20% RH): 0.06%
Sorp. (%) Cycle 2 ([3]; 20% RH): 0.06%
Desorp. (%) Cycle 1 ([3]; 30% RH): 0.10%
Desorp. (%) Cycle 2 ([3]; 30% RH): 0.08%
Sorp. (%) Cycle 1 ([3]; 30% RH): 0.08%
Sorp. (%) Cycle 2 ([3]; 30% RH): 0.07%
Desorp. (%) Cycle 1 ([3]; 40% RH): 0.17%
Desorp. (%) Cycle 2 ([3]; 40% RH): 0.10%
Sorp. (%) Cycle 1 ([3]; 40% RH): 0.10%
Sorp. (%) Cycle 2 ([3]; 40% RH): 0.09%
Desorp. (%) Cycle 2 ([3]; 50% RH): 0.12%
Sorp. (%) Cycle 1 ([3]; 50% RH): 0.12%
Desorp. (%) Cycle 2 ([3]; 60% RH): 0.14%
Sorp. (%) Cycle 1 ([3]; 60% RH): 0.13%
Desorp. (%) Cycle 2 ([3]; 70% RH): 0.18%
Sorp. (%) Cycle 1 ([3]; 70% RH): 0.16%
Desorp. (%) Cycle 2 ([3]; 80% RH): 0.21%
Sorp. (%) Cycle 1 ([3]; 80% RH): 0.19%
Desorp. (%) Cycle 2 ([3]; 90% RH): 0.24%
Sorp. (%) Cycle 1 ([3]; 90% RH): 0.23%
Desorp. (%) Cycle 2 ([3]; 95% RH): 0.24%
Sorp. (%) Cycle 1 ([3]; 95% RH): 0.24%
Hygroscopicity ([3]; DVS at 25° C., in words): slightly hygroscopic
XRPD after DVS test ([3]; after DVS 40-0-95-0-40% RH): No form change
XRPD after DVS test ([3]; after humidity cycle 40-0-95-0-40% RH, listed as Compound II Pattern 1, monofumarate): No form change
XRPD after DVS test ([3]; after humidity cycle 40-0-95-0-40% RH, monofumarate): does not change
Water uptake [3]: about 0.2%
